Patent US8063220B2, “Sulfonyl-quinoline derivatives” (Richter Gedeon Nyrt., priority 2007, dated 2011)

Columns and labels:
mGluR5 receptors = mGluR5 receptors (Homo sapiens, UniProt P41594); assay: Activity on mGluR5 receptors (test not specified)
mGluR1 receptors = mGluR1 receptors (Homo sapiens, UniProt Q13255); assay: Activity on mGluR1 receptors (test not specified)
rat mGluR1 = target: T1, rat mGluR1 (Rattus norvegicus, UniProt P23385); assay: MGluR1 receptor binding test ([3H]R214127 displacement, rat cerebellar membrane preparation); settings: rat mGluR1, [3H]R214127 3 nM; read-out: mGlu1 Ki
T1 construct: rat cerebellar membrane preparation was used; from tissue; host or cells: rat cerebellum (membrane preparation)
Method in brief: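 Rat cerebellar membranes with 3 nM [3H]R214127; nonspecific binding defined by 1 μM R214127. IC50 from displacement curves by nonlinear regression, converted to Ki by Cheng–Prusoff.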

rat mGluR5 = target: T2, rat mGluR5 (Rattus norvegicus, UniProt P31424); assay: MGluR5 receptor binding test ([3H]-M-MPEP displacement, rat cerebro-cortical membrane preparation); settings: rat mGluR5, [3H]-M-MPEP 2 nM; read-out: mGlu5 Ki
T2 construct: Rat cerebro-cortical membrane preparation was used; from tissue; host or cells: rat cerebral cortex (membrane preparation)
Experimental: Rat cerebro-cortical membrane preparation was used to determine the binding characteristics of reference compounds and novel compounds to the rat mGluR5. The A18 cell line expressing hmGluR5a (purchased from Euroscreen) was used to determine binding characteristics of the chemical compounds to the human mGluR5a receptor. [3H]-M-MPEP (2 nM) was used as radioligand. The nonspecific binding was determined in the presence of 10 μM M-MPEP.

T2 sequence (P31424 21-1203): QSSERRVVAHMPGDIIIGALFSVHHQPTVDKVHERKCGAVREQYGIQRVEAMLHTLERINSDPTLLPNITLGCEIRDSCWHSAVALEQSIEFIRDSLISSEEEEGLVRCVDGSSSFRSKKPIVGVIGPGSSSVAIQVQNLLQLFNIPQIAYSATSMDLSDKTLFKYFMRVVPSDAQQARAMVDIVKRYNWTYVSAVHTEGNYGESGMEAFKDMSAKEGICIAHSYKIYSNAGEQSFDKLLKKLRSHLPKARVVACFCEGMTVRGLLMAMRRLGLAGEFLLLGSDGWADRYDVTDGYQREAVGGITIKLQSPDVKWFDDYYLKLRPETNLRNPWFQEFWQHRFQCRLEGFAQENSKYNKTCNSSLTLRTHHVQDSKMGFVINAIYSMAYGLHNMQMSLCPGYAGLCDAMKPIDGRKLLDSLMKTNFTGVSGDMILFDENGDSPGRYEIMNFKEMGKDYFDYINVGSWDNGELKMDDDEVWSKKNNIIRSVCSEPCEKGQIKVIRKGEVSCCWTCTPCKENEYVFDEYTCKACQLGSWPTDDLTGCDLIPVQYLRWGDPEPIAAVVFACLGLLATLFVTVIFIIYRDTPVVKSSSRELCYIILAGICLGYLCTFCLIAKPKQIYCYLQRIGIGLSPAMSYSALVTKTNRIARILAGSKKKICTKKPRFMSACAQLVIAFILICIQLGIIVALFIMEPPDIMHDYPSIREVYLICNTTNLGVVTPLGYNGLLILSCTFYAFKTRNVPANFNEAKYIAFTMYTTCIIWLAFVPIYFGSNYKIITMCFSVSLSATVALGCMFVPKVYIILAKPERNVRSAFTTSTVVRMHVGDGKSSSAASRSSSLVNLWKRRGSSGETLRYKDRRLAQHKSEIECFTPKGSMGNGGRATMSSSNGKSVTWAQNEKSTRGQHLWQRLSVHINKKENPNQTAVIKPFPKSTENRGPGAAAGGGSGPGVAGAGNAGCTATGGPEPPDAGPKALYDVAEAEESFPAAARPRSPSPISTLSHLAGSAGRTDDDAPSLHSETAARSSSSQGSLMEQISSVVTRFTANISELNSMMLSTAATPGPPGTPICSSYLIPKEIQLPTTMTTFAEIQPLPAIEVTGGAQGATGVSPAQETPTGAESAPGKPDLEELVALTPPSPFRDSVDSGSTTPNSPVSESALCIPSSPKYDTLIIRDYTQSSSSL
T1 sequence (P23385 19-1199): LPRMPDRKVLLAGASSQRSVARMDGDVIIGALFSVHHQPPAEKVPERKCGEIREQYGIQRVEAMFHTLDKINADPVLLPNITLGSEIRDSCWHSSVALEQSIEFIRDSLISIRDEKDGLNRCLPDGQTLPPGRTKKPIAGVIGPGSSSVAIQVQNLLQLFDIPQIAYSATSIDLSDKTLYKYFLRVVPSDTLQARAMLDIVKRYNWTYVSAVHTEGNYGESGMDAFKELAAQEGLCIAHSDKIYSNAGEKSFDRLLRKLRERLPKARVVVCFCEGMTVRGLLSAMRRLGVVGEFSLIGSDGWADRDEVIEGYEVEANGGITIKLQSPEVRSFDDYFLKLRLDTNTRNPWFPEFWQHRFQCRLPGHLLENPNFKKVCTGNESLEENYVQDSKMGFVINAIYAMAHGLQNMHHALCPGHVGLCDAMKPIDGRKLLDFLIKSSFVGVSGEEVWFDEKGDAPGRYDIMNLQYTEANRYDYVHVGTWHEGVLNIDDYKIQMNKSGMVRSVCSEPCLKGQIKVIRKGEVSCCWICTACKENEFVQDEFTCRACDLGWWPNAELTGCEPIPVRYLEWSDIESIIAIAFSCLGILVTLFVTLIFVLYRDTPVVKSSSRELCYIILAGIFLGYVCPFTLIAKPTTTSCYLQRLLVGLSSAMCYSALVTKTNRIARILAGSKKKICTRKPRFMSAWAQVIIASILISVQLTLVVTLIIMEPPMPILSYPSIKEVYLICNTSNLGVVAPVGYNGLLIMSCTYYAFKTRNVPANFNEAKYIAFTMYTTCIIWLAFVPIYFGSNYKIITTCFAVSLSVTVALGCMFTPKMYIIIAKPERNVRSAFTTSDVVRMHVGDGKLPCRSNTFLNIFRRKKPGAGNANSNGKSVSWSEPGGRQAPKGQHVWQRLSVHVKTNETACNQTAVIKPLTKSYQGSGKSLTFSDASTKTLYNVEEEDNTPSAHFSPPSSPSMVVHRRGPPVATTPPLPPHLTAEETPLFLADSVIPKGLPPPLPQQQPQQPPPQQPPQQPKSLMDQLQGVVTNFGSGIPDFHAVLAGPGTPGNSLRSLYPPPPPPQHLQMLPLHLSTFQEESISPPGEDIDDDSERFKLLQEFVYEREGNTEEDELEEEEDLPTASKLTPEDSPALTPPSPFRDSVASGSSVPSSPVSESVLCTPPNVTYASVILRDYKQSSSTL
mGluR5 receptors, sequence (P41594 21-1212): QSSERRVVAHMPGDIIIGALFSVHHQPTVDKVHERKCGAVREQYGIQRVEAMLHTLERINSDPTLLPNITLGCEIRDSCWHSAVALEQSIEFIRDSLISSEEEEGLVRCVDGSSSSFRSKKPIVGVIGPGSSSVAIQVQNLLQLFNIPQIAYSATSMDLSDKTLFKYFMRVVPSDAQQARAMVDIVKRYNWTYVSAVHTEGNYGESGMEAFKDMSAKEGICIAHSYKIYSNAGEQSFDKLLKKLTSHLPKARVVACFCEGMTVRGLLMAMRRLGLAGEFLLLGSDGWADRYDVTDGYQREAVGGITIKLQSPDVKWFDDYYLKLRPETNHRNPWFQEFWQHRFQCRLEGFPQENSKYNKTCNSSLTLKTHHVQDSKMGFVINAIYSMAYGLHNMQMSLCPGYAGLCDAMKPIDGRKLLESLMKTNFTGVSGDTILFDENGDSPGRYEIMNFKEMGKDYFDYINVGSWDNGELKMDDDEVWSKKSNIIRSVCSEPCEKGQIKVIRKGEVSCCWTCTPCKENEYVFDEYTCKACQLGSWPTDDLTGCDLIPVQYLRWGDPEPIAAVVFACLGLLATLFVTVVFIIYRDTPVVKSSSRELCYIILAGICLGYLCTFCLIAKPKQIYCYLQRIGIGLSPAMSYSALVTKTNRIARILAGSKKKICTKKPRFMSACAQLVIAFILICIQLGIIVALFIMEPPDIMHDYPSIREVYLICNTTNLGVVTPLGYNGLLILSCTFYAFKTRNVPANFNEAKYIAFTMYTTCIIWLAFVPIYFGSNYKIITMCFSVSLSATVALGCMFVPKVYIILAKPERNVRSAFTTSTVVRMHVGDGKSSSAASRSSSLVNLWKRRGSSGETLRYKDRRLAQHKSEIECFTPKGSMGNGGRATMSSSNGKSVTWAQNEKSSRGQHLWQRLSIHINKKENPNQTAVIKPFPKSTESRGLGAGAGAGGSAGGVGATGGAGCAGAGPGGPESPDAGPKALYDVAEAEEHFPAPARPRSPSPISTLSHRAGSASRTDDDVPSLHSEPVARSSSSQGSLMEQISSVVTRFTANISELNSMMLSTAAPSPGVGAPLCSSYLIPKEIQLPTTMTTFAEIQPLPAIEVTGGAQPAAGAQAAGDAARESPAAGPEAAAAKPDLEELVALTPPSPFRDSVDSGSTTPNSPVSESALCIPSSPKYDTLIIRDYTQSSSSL
mGluR1 receptors, sequence (Q13255 19-1194): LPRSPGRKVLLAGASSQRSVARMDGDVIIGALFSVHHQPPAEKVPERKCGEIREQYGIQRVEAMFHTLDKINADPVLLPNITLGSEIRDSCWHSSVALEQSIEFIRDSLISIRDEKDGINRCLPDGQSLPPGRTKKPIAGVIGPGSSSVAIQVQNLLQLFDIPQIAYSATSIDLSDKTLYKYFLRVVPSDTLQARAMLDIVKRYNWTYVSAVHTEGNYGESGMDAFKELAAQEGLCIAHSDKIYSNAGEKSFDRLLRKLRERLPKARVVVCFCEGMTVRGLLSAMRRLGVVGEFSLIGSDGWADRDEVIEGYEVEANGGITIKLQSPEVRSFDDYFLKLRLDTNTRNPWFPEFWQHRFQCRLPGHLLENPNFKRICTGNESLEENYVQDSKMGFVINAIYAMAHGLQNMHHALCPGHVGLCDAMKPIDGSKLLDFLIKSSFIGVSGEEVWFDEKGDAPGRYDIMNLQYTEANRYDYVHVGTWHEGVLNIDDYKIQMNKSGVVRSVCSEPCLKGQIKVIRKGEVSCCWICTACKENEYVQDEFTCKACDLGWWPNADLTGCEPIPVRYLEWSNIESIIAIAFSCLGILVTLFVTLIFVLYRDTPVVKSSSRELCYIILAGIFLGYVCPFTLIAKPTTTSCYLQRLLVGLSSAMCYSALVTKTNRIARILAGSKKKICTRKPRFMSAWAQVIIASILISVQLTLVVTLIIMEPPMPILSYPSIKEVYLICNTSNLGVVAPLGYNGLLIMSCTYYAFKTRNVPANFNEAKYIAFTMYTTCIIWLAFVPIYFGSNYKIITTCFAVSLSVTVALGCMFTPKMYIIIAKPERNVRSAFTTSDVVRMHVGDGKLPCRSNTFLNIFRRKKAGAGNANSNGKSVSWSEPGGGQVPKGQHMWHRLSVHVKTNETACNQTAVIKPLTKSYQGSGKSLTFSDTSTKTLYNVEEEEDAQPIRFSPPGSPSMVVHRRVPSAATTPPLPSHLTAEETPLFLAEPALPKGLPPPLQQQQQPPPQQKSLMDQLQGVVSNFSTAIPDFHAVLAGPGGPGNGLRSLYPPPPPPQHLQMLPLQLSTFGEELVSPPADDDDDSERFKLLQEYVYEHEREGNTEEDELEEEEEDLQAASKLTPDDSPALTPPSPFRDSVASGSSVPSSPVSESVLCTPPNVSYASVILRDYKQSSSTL

activity on mGluR5 receptors (mGluR5 receptors)	activity on mGluR1 receptors (mGluR1 receptors)	Ki (rat mGluR1)	Ki (rat mGluR5)	SMILES
inactive	inactive	–	–	O=S(=O)(c1ccccc1)c1cnc2c(C(F)(F)F)cccc2c1-c1ccccc1 [3-benzenesulfonyl-4-phenyl-8-trifluoromethyl-quinoline]
–	–	> 500 nM	< 200 nM	COc1ccc(S(=O)(=O)c2cnc3cc(F)ccc3c2-c2cccc(F)c2)cc1Cl [Compound 48]
–	–	> 500 nM	< 200 nM	N#Cc1cc(F)cc(S(=O)(=O)c2cnc3cc(F)ccc3c2-c2ccc(F)c(F)c2)c1 [Compound 231]
–	–	> 500 nM	< 200 nM	Cc1ccc(S(=O)(=O)c2cnc3c(F)cccc3c2-c2cccc(F)c2)cc1F [Compound 111]
–	–	> 500 nM	> 500 nM	COc1ccc(S(=O)(=O)c2cnc3ccc(F)cc3c2-c2ccc(Cl)cc2)cc1OC [Compound 164]
–	–	200 to 500 nM	< 200 nM	O=S(=O)(c1cc(Cl)cc(Cl)c1)c1cnc2ccc(F)cc2c1-c1cccc(F)c1 [Compound 124]
–	–	> 500 nM	200 to 500 nM	COc1cccc(-c2c(S(=O)(=O)c3ccc(F)c(F)c3)cnc3ccc(F)cc23)c1 [Compound 151]
–	–	> 500 nM	< 200 nM	N#Cc1cc(F)cc(S(=O)(=O)c2cnc3cc(F)ccc3c2-c2cccc(Cl)c2)c1 [Compound 244]
–	–	200 to 500 nM	< 200 nM	Nc1ccc2c(-c3cccc(F)c3)c(S(=O)(=O)c3ccc(F)c(F)c3)cnc2c1 [Compound 264, 7-Amino-3-(3,4-difluoro-benzenesulfonyl)-4-(3-fluoro-phenyl)-quinoline]
–	–	> 500 nM	< 200 nM	N#Cc1cc(S(=O)(=O)c2cnc3ccccc3c2-c2cccc(F)c2)ccc1F [Compound 206]
–	–	200 to 500 nM	< 200 nM	O=S(=O)(c1cc(F)cc(F)c1)c1cnc2c(F)cccc2c1-c1ccc(Cl)cc1 [Compound 116]
–	–	> 500 nM	< 200 nM	Cc1ccc(S(=O)(=O)c2cnc3ccc(F)cc3c2-c2ccc(Cl)cc2)cc1Cl [Compound 139]
–	–	> 500 nM	200 to 500 nM	O=S(=O)(c1cc(F)cc(F)c1)c1cnc2cc(Cl)c(F)cc2c1-c1ccc(F)cc1 [Compound 202]
–	–	> 500 nM	> 500 nM	O=S(=O)(c1cccc(F)c1)c1cnc2ccc(F)cc2c1-c1ccc(Cl)cc1 [Compound 32]
–	–	200 to 500 nM	< 200 nM	O=S(=O)(c1ccc(F)c(Cl)c1)c1cnc2cc(F)ccc2c1-c1ccccc1F [Compound 224]
–	–	> 500 nM	> 500 nM	COc1ccc(-c2c(S(=O)(=O)c3ccc(OC)c(OC)c3)cnc3ccc(F)cc23)cc1 [Compound 71]
–	–	> 500 nM	< 200 nM	O=S(=O)(c1ccc(Cl)c(F)c1)c1cnc2cc(F)c(Cl)cc2c1-c1ccc(Cl)cc1 [Compound 189]
–	–	> 500 nM	< 200 nM	Cc1ccc(S(=O)(=O)c2cnc3c(F)cccc3c2-c2ccc(F)cc2)cc1F [Compound 114]
–	–	> 500 nM	< 200 nM	O=S(=O)(c1cc(Cl)cc(Cl)c1)c1cnc2cc(Cl)ccc2c1-c1ccc(F)cc1 [Compound 178]
–	–	> 500 nM	200 to 500 nM	N#Cc1cccc(S(=O)(=O)c2cnc3cc(C#N)ccc3c2-c2ccc(F)cc2)c1 [Compound 193]
–	–	> 500 nM	< 200 nM	COc1ccc(-c2c(S(=O)(=O)c3ccc(C)c(F)c3)cnc3c(F)cccc23)cc1 [Compound 112]
–	–	> 500 nM	< 200 nM	Cc1ccc(S(=O)(=O)c2cnc3ccc(F)cc3c2-c2cccc(F)c2)cc1Cl [Compound 140]
–	–	> 500 nM	< 200 nM	Cc1ccc(S(=O)(=O)c2cnc3cc(F)ccc3c2-c2ccc(Cl)cc2)cc1C [Compound 45]
–	–	> 500 nM	< 200 nM	O=S(=O)(c1ccc(F)cc1)c1cnc2cc(Cl)ccc2c1-c1ccc(Cl)cc1 [Compound 172]

activity on mGluR5 receptors (mGluR5 receptors)	activity on mGluR1 receptors (mGluR1 receptors)	Ki (rat mGluR1)	Ki (rat mGluR5)	SMILES
–	–	> 500 nM	< 200 nM	COc1ccc(S(=O)(=O)c2cnc3cc(F)ccc3c2-c2ccc(Cl)cc2)cc1 [Compound 11]
–	–	> 500 nM	200 to 500 nM	O=S(=O)(c1ccc(Cl)c(F)c1)c1cnc2cc(F)c(Cl)cc2c1-c1cccc(F)c1 [Compound 188]
–	–	> 500 nM	< 200 nM	O=S(=O)(c1ccc(F)c(F)c1)c1cnc2cc(F)ccc2c1-c1ccc(Cl)cc1 [Compound 247]
–	–	> 500 nM	< 200 nM	O=S(=O)(c1cccc(F)c1)c1cnc2cc(F)ccc2c1-c1ccc(Cl)cc1 [Compound 41]
–	–	> 500 nM	< 200 nM	Cc1ccc(S(=O)(=O)c2cnc3ccc(F)cc3c2-c2cccc(F)c2)cc1C [Compound 146]
–	–	> 500 nM	< 200 nM	O=S(=O)(c1cccc(F)c1)c1cnc2cc(Cl)ccc2c1-c1ccc(Cl)cc1 [Compound 173]
–	–	> 500 nM	< 200 nM	O=S(=O)(c1ccc(F)c(F)c1)c1cnc2c(F)cccc2c1-c1ccccc1F [Compound 243]
–	–	> 500 nM	> 500 nM	O=S(=O)(c1ccc(F)cc1)c1cnc2ccc(Cl)cc2c1-c1cccc(Cl)c1 [Compound 3]
–	–	< 200 nM	< 200 nM	N#Cc1cccc(S(=O)(=O)c2cnc3cc(Cl)ccc3c2-c2cccc(F)c2)c1 [Compound 234]
–	–	> 500 nM	< 200 nM	COc1cccc(-c2c(S(=O)(=O)c3ccc(C)c(C)c3)cnc3cc(F)ccc23)c1 [Compound 19]
–	–	> 500 nM	< 200 nM	COc1ccc(-c2c(S(=O)(=O)c3ccc(OC)c(Cl)c3)cnc3ccc(F)cc23)cc1 [Compound 74]
–	–	> 500 nM	< 200 nM	N#Cc1cc(S(=O)(=O)c2cnc3ccccc3c2-c2ccc(Cl)c(Cl)c2)ccc1F [Compound 232]
–	–	> 500 nM	< 200 nM	COc1cccc(-c2c(S(=O)(=O)c3cccc(C#N)c3)cnc3ccc(F)cc23)c1 [Compound 68, 3-(3-cyano-benzenesulfonyl)-6-fluoro-4-(3-methoxy-phenyl)-quinoline]
–	–	200 to 500 nM	< 200 nM	O=S(=O)(c1ccc(F)cc1)c1cnc2cc(F)ccc2c1-c1cccc(F)c1 [Compound 9, 7-fluoro-3-(4-fluoro-benzenesulfonyl)-4-(3-fluoro-phenyl)-quinoline]
–	–	> 500 nM	< 200 nM	COc1ccc(S(=O)(=O)c2cnc3ccc(F)cc3c2-c2cccc(F)c2)cc1Cl [Compound 79]
–	–	> 500 nM	> 500 nM	O=S(=O)(c1ccc(Cl)cc1)c1cnc2c(Cl)cccc2c1-c1ccc(Cl)c(Cl)c1 [Compound 184]
–	–	> 500 nM	< 200 nM	COc1ccc(-c2c(S(=O)(=O)c3cccc(OC)c3)cnc3ccc(F)cc23)cc1 [Compound 145]
–	–	200 to 500 nM	< 200 nM	O=S(=O)(c1cc(F)cc(F)c1)c1cnc2cc(F)ccc2c1-c1cccc(F)c1 [Compound 88]
–	–	> 500 nM	< 200 nM	N#Cc1cc(S(=O)(=O)c2cnc3cc(F)ccc3c2-c2cccc(Cl)c2)ccc1F [Compound 235]
–	–	> 500 nM	200 to 500 nM	O=S(=O)(c1cc(F)cc(F)c1)c1cnc2ccc(F)cc2c1-c1ccc(Cl)cc1 [Compound 132]
–	–	> 500 nM	< 200 nM	N#Cc1ccc2c(-c3ccccc3F)c(S(=O)(=O)c3ccc(F)c(Cl)c3)cnc2c1 [Compound 195]
–	–	> 500 nM	< 200 nM	O=S(=O)(c1cc(Cl)cc(Cl)c1)c1cnc2cc(Cl)ccc2c1-c1cccc(F)c1 [Compound 166]
–	–	> 500 nM	> 500 nM	N#Cc1ccc2c(-c3ccc(F)cc3)c(S(=O)(=O)c3ccc(F)c(F)c3)cnc2c1 [Compound 192]
–	–	200 to 500 nM	< 200 nM	N#Cc1cccc(S(=O)(=O)c2cnc3cc(F)ccc3c2-c2ccc(Cl)cc2)c1 [Compound 37]
